EP2763666B1 (priority 2011, dated 2013)
Like-named read-outs stand apart in the source and are kept apart here.

What was measured:
canine blood monocytes = assay type: in vivo, dogs; details: for Macrophages activity of killing: NO production / NBT reduction; for Macrophages activity of killing / Macrophages activity of binding: mean ± standard deviation; for Macrophages activity of binding: direct count of macrophages containing yeast cells
[1] = system: L. infantum infected dogs; assay type: in vivo; details: for RT-PCR on lymph node FNA: mean ± standard deviation
[2] = system: L. infantum infected dogs; assay type: in vivo; details: mean ± standard deviation
[3] = system: L. infantum infected dogs; assay type: in vivo; details: for Antibody titre: mean ± standard deviation
[4] = system: L. infantum infected dogs; assay type: in vivo; details: mean ± standard deviation; remark: listed apart in the source
[5] = system: L. infantum infected dogs; assay type: in vivo; details: for A/G ratio / Serum albumin / Serum γ-globulin: mean ± standard deviation
generalized demodicosis = assay: Canine generalized demodicosis: IP versus milbemycin oxime; assay type: in vivo, dogs; details: fraction of cases
Experimental: Twelve dogs diagnosed with generalized demodicosis were treated, 6 with IP and 6 with milbemycin oxime. Cases diagnosed before two years of age were classified as juvenile-onset (58.3%, 7 dogs) and those diagnosed after two years of age as adult-onset (41.6%, 5 dogs). […] As previous mentioned, in six dogs cured with milbemycin oxime, the drug was used for 1-6 months (mean 2.3 months) at a dosage of 0.5-1.6 mg kg-1 body weight (mean 0.75 mg kg-1). No significant difference in dosage or treatment time was seen between juvenile and adult cases. Six dogs cured with IP were treated at the same manner indicated as reported in Example 1, and 6). In group of IP treated dogs, not differences were observed between young and adult treated animals. […] Cases with severe pododemodicosis had less chance of a cure (2/3 not cured) by using M-O protocol, but not with IP protocol (2/2 cured).
Dogs: dogs of every age, breed or sex with generalized demodicosis were used in this study. All dogs. […] Dogs developing the disease at less than two years of age were classified as juvenile-onset generalized demodicosis. Dogs that developed disease at two years of age or older were classified as adult onset generalized demodicosis. […]
Follow-up: follow-up visits were scheduled once a month for clinical evaluation and skin scrapings. The scraping sites were recorded and sampled at each subsequent examination. […]

[6] = T0 (beginning of therapy), baseline

In the case of `Cc1ccc(-c2cc(C(F)(F)F)nn2-c2ccc(S(N)(=O)=O)cc2)cc1` [Celecoxib], the “side effects: animals with chronic bleeding” value (5 control parrots treated only with anti-COX2) is reported as “two”, the “death with acute hemorrhagic event in the proventriculus, time from initiation of therapy” value (adult female African Grey parrot) is reported as at most 7 days and the “negativization of crop biopsies” value (histology at T1 (six months) and T2 (one year of therapy)) is reported as 20%. The “renal side effect leading to discontinuation” value (in vivo) was “inducing renal failure”, the parrots survived (of 5 parrots, 1.5 year later) was 1 and the parrots died (of 5 parrots, during four months after the end of the therapy) was 4.
In the case of Meglumine antimoniate [Control group], the “Macrophages killing activity, levels of NO production / NBT reduction (trend)” value (canine blood monocytes; Figure 4A legend) is reported as “constantly low”, the “Macrophages activity of killing” value (canine blood monocytes; [6]) is reported as 1,1 ± 0,1 and the “Macrophages activity of binding” value (canine blood monocytes; [6]) is reported as 31,84 ± 12,9. The “Macrophages activity of killing” value (canine blood monocytes; T1 (2 months)) was 1,2 ± 0,1, the “Macrophages activity of binding” value (canine blood monocytes; T1 (2 months)) was 34,84 ± 14,2 and the “Macrophages activity of killing” value (canine blood monocytes; T2 (6 months)) was 1,1 ± 0,1. The “Macrophages activity of binding” value (canine blood monocytes; T2 (6 months)) was 35,42 ± 13,68, the “Macrophages activity of killing” value (canine blood monocytes; T3 (12 months)) was 1,1 ± 0,1 and the “Macrophages activity of binding” value (canine blood monocytes; T3 (12 months)) was 32,77 ± 12,78. For the same compound, the “PCR results, levels of DNA copies (trend)” value ([1]; Figure 2B legend, after two months of treatment up to one year) was “progressive increase of parasite DNA in lymphnodes and bone-marrow”, the “RT-PCR on lymph node FNA” value [1, 6] was 613.228 ± 747.653 Parasites/ml and the “RT-PCR on lymph node FNA” value ([1]; T1 (2 months)) was 287.482 ± 434.807 Parasites/ml. For the same compound, the “RT-PCR on lymph node FNA” value ([1]; T2 (6 months)) was 210.103 ± 364.909 Parasites/ml, the “RT-PCR on lymph node FNA” value ([1]; T3 (12 months)) was 340.367 ± 511.898 Parasites/ml and the “CD3^+/CD21^+ ratio” value [2, 6] was 42,62 ± 21,24. For the same compound, the “CD4^+/CD8^+ ratio” value [2, 6] was 1,02 ± 0,48, the “CD3^+/CD21^+ ratio” value ([2]; T1 (2 months)) was 38,13 ± 20,56 and the “CD4^+/CD8^+ ratio” value ([2]; T1 (2 months)) was 1,04 ± 0,46. The “CD3^+/CD21^+ ratio” value ([2]; T2 (6 months)) was 39,85 ± 17,58, the “CD4^+/CD8^+ ratio” value ([2]; T2 (6 months)) was 1,02 ± 0,45 and the “CD3^+/CD21^+ ratio” value ([2]; T3 (12 months)) was 38,64 ± 19,54. For the same compound, the “CD4^+/CD8^+ ratio” value ([2]; T3 (12 months)) was 1,31 ± 0,58, the “trend of antibody (Ab titre)” value ([3]; Figure 2A legend, after the first six months of the trial) was “antibody title increase” and the Antibody titre [3, 6] was 908 ± 1240. The Antibody titre ([3]; T1 (2 months)) was 779 ± 1031, the Antibody titre ([3]; T2 (6 months)) was 378 ± 321 and the Antibody titre ([3]; T3 (12 months)) was 493 ± 678. The Clinical scores [4, 6] was 4,4 ±2, the Clinical scores ([4]; T1 (2 months)) was 2,5 ± 1,9 and the Clinical scores ([4]; T2 (6 months)) was 2,7 ±2. For the same compound, the Clinical scores ([4]; T3 (12 months)) was 2,8 ± 2,2, the “electrophoresis: gamma-globulins levels in sera (trend)” value ([5]; Figure 2D legend) was “after a first period of decreasing trend, the gamma globulins trend increase” and the A/G ratio [5, 6] was 0,48 ± 0,23. The Serum albumin [5, 6] was 30,08 ± 9,63%, the “Serum γ-globulin” value [5, 6] was 30,67 ± 7,91% and the A/G ratio ([5]; T1 (2 months)) was 0,55 ± 0,23. The Serum albumin ([5]; T1 (2 months)) was 34,03 ± 9,5%, the “Serum γ-globulin” value ([5]; T1 (2 months)) was 23,15 ± 7,46% and the A/G ratio ([5]; T2 (6 months)) was 0,57 ± 0,23. For the same compound, the Serum albumin ([5]; T2 (6 months)) was 35,22 ± 9,35%, the “Serum γ-globulin” value ([5]; T2 (6 months)) was 21,56 ± 5,86% and the A/G ratio ([5]; T3 (12 months)) was 0,57 ± 0,22. The Serum albumin ([5]; T3 (12 months)) was 35,26 ±9,61% and the “Serum γ-globulin” value ([5]; T3 (12 months)) was 22,74 ± 7,93%.
With milbemycin oxime [M-O] the “cases with severe pododemodicosis not cured” value (generalized demodicosis) was 2/3.
